Consider 20 molecules from patent publication US20120225062A1 (priority 2011, published 2012).

Usually IC50 stands for the concentration that inhibits the measured activity by half. Low readings indicate higher potency, high ones lower potency. The EC50 is the concentration that produces a half-maximal response.

One test deals with Pim 1 (Homo sapiens, UniProt P11309). The test can be described thus: Pim 1 AlphaScreen assay (high ATP). Background: In Alpha technology, singlet oxygen from a donor bead excites a nearby acceptor bead.
The test system of test [1] is KMS11 (human myeloma cell line). Description: Cell Proliferation Assay (CellTiter-Glo, 3 days). The format is cell-based. Particulars: KMS-11, 72 h, KMS11-luc cells. In outline: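 EC50 from CellTiter-Glo luminescence after 3-day, 37° C compound treatment of KMS11 cells seeded at 2000 per well in IMDM plus 10% FBS.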
The next test deals with Pim 3 (Homo sapiens, UniProt Q86V86). Description: Pim 3 AlphaScreen assay (high ATP).
In another test the target is Pim 2 (Homo sapiens, UniProt Q9P1W9). The test can be described thus: Pim 2 AlphaScreen assay (high ATP).
Sequence of Pim 2 (Q9P1W9 whole entry): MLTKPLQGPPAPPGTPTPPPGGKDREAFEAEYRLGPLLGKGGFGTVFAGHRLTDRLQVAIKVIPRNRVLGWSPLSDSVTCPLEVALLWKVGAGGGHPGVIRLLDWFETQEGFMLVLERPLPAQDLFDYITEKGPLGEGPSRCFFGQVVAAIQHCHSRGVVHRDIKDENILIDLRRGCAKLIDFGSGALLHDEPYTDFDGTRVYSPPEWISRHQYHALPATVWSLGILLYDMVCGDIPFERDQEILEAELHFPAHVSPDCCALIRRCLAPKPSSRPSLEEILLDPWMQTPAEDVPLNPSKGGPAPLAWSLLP

Sequence of Pim 1 (P11309 whole entry): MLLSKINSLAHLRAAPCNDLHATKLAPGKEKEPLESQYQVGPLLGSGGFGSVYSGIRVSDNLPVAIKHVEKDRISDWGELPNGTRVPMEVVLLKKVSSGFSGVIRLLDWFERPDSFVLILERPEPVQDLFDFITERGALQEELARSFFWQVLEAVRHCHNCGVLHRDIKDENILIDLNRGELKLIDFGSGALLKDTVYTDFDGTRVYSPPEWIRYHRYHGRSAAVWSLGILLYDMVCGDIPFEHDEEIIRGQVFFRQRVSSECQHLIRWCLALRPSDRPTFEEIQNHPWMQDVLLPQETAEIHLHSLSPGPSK

In the case of `COCCOc1cc(F)c(-c2nc(C(=O)Nc3cnccc3N3C[C@@H](N)[C@H](O)[C@@H](C)C3)ccc2F)c(F)c1` [Example 22, N-(4-((3R,4R,5S)-3-amino-4-hydroxy-5-methylpiperidin-1-yl)pyridin-3-yl)-6-(2,6-difluoro-4-(2-methoxyethoxy)phenyl)-5-fluoropicolinamide], the IC50 on Pim 1 is 0.03 nM; at Pim 3, 0.45 nM; against Pim 2 it was 1.5 nM. The molecule also gave an EC50 in test [1] of 10 nM.

Take `CSc1cc(F)c(-c2nc(C(=O)Nc3cnccc3N3C[C@@H](N)[C@H](O)[C@@H](C)C3)ccc2F)c(F)c1` [Example 23, N-(4-((3R,4R,5S)-3-amino-4-hydroxy-5-methylpiperidin-1-yl)pyridin-3-yl)-6-(2,6-difluoro-4-(methylthio)phenyl)-5-fluoropicolinamide]: the IC50 at Pim 1 was 0.02 nM; against Pim 3 it was 0.32 nM; against Pim 2, 0.96 nM. Besides, in test [1], the EC50 stood at 29 nM.

For `COCCOc1cc(F)c(-c2nc(C(=O)Nc3cnccc3[C@H]3C[C@@H](N)[C@H](O)[C@@H](C)C3)ccc2F)c(F)c1` [Example 24, N-(4-((1R,3R,4R,5S)-3-amino-4-hydroxy-5-methylcyclohexyl)pyridin-3-yl)-6-(2,6-difluoro-4-(2-methoxyethoxy)phenyl)-5-fluoropicolinamide], the IC50 against Pim 1 is 0.07 nM; against Pim 3 it was 2.46 nM; against Pim 2 it was 5.57 nM. In test [1], this molecule displayed an EC50 of 72 nM.

Take `C[C@H]1CN(c2ccncc2NC(=O)c2ccc(F)c(-c3c(F)cc([S@+](C)[O-])cc3F)n2)C[C@@H](N)[C@@H]1O` [Example 25, N-(4-((3R,4R,5S)-3-amino-4-hydroxy-5-methylpiperidin-1-yl)pyridin-3-yl)-6-(2,6-difluoro-4-((S)-methylsulfinyl)phenyl)-5-fluoropicolinamide]: the figures for the IC50 on Pim 1, on Pim 3 and on Pim 2 were 0.03 nM, 0.37 nM and 0.94 nM, respectively. This molecule came in with an EC50 in test [1] of 11 nM.

Regarding `C[C@H]1CN(c2ccncc2NC(=O)c2ccc(F)c(-c3c(F)cc([S@@+](C)[O-])cc3F)n2)C[C@@H](N)[C@@H]1O` [Example 26, N-(4-((3R,4R,5S)-3-amino-4-hydroxy-5-methylpiperidin-1-yl)pyridin-3-yl)-6-(2,6-difluoro-4-((R)-methylsulfinyl)phenyl)-5-fluoropicolinamide], the IC50 was 0.05 nM against Pim 1, 2.21 nM against Pim 3 and 1.88 nM against Pim 2. Further, the EC50 in test [1] was 42 nM.

On to `C[C@@H]1C[C@H](N)C[C@H](c2ccncc2NC(=O)c2ccc(F)c(-c3c(F)ccc(OCCO)c3F)n2)C1` [Example 29, N-(4-((1R,3S,5S)-3-amino-5-methylcyclohexyl)pyridin-3-yl)-6-(2,6-difluoro-3-(2-hydroxyethoxy)phenyl)-5-fluoropicolinamide], for which the IC50 is 0.04 nM at Pim 1, 1.08 nM against Pim 3 and 2.33 nM at Pim 2. The molecule further returned an EC50 in test [1] of 64 nM.

As to `C[C@H]1C[C@@H](c2ccncc2NC(=O)c2ccc(F)c(-c3c(F)ccc(OCCO)c3F)n2)C[C@@H](N)[C@@H]1O` [Example 30, N-(4-((1R,3R,4R,5S)-3-amino-4-hydroxy-5-methylcyclohexyl)pyridin-3-yl)-6-(2,6-difluoro-3-(2-hydroxyethoxy)phenyl)-5-fluoropicolinamide], the IC50 worked out at 0.07 nM against Pim 1, 2.25 nM at Pim 3 and 11.4 nM at Pim 2. In addition, the response in test [1] was half-maximal at 186 nM (EC50).

In the case of `C[C@H]1C[C@@H](c2ccncc2NC(=O)c2ccc(F)c(-c3c(F)cc(OCCO)cc3F)n2)C[C@@H](N)[C@@H]1O` [Example 32, N-(4-((1R,3R,4R,5S)-3-amino-4-hydroxy-5-methylcyclohexyl)pyridin-3-yl)-6-(2,6-difluoro-4-(2-hydroxyethoxy)phenyl)-5-fluoropicolinamide], the IC50 at Pim 1 came to 0.06 nM; against Pim 3 it was 1.9 nM; on Pim 2, 4.76 nM. The response in test [1] was half-maximal at 52 nM (EC50).

Regarding `C[C@@H]1C[C@H](N)C[C@H](c2ccncc2NC(=O)c2ccc(F)c(-c3c(F)cc(CCO)cc3F)n2)C1` [Example 33, N-(4-((1R,3S,5S)-3-amino-5-methylcyclohexyl)pyridin-3-yl)-6-(2,6-difluoro-4-(2-hydroxyethyl)phenyl)-5-fluoropicolinamide], the IC50 was determined as 0.02 nM on Pim 1, 1 nM on Pim 3 and 1.52 nM against Pim 2. The molecule further returned an EC50 in test [1] of 13 nM.

As to `C[C@H]1CN(c2ccncc2NC(=O)c2ccc(F)c(-c3c(F)cc(CCO)cc3F)n2)C[C@@H](N)[C@@H]1O` [Example 35, N-(4-((3R,4R,5S)-3-amino-4-hydroxy-5-methylpiperidin-1-yl)pyridin-3-yl)-6-(2,6-difluoro-4-(2-hydroxyethyl)phenyl)-5-fluoropicolinamide], the IC50 against Pim 1 stood at 0.03 nM; at Pim 3, 0.36 nM; against Pim 2, 1.09 nM. Besides, the EC50 in test [1] was 7 nM.

With `Cc1cc(F)c(-c2nc(C(=O)Nc3cnccc3N3C[C@@H](N)[C@H](O)[C@@H](C)C3)ccc2F)c(F)c1` [Example 37, N-(4-((3R,4R,5S)-3-amino-4-hydroxy-5-methylpiperidin-1-yl)pyridin-3-yl)-6-(2,6-difluoro-4-methylphenyl)-5-fluoropicolinamide], the IC50 against Pim 1 worked out at 0.02 nM; at Pim 3, 0.28 nM; against Pim 2, 0.94 nM. In test [1], the EC50 was found to be 13 nM.

On to `COCc1cc(F)c(-c2nc(C(=O)Nc3cnccc3N3C[C@@H](N)[C@H](O)[C@@H](C)C3)ccc2F)c(F)c1` [Example 38, N-(4-((3R,4R,5S)-3-amino-4-hydroxy-5-methylpiperidin-1-yl)pyridin-3-yl)-6-(2,6-difluoro-4-(methoxymethyl)phenyl)-5-fluoropicolinamide], for which the IC50 worked out at 0.03 nM on Pim 1, 0.47 nM against Pim 3 and 1.35 nM on Pim 2. In addition, the EC50 in test [1] amounted to 10 nM.

As for `COCc1cc(F)c(-c2nc(C(=O)Nc3cnccc3[C@H]3C[C@@H](N)[C@H](O)[C@@H](C)C3)ccc2F)c(F)c1` [Example 40, N-(4-((1R,3R,4R,5S)-3-amino-4-hydroxy-5-methylcyclohexyl)pyridin-3-yl)-6-(2,6-difluoro-4-(methoxymethyl)phenyl)-5-fluoropicolinamide], the IC50 against Pim 1 turned out to be 0.08 nM; against Pim 3 it was 2.63 nM; on Pim 2, 3.98 nM. For the same molecule, the EC50 in test [1] was 68 nM.

Turning to `COCc1cc(F)c(-c2nc(C(=O)Nc3cnccc3[C@@H]3C[C@H](C)C[C@H](N)C3)ccc2F)c(F)c1` [Example 41, N-(4-((1R,3S,5S)-3-amino-5-methylcyclohexyl)pyridin-3-yl)-6-(2,6-difluoro-4-(methoxymethyl)phenyl)-5-fluoropicolinamide], the IC50 on Pim 1 came out at 0.04 nM; at Pim 3 it was 2.14 nM; on Pim 2, 2.78 nM. For the same molecule, a half-maximal effect in test [1] (EC50) was put at 22 nM.

`C[C@H]1C[C@@H](c2ccncc2NC(=O)c2ccc(F)c(-c3c(F)cc(OCC4CC4)cc3F)n2)C[C@@H](N)[C@@H]1O` [Example 42, N-(4-((1R,3R,4R,5S)-3-amino-4-hydroxy-5-methylcyclohexyl)pyridin-3-yl)-6-(4-(cyclopropylmethoxy)-2,6-difluorophenyl)-5-fluoropicolinamide]: the IC50 against Pim 1 amounted to 0.03 nM; on Pim 3 it was 0.8 nM; at Pim 2, 2.77 nM. In test [1], this molecule registered an EC50 of 139 nM.

`CCC(=O)c1cc(F)c(-c2nc(C(=O)Nc3cnccc3[C@@H]3C[C@H](C)C[C@H](N)C3)ccc2F)c(F)c1` [Example 43, N-(4-((1R,3S,5S)-3-amino-5-methylcyclohexyl)pyridin-3-yl)-6-(2,6-difluoro-4-propionylphenyl)-5-fluoropicolinamide]: the figures for the IC50 against Pim 1, at Pim 3 and on Pim 2 were 0.14 nM, 11.4 nM and 15.3 nM, respectively. In test [1], this molecule yielded an EC50 of 43 nM.

Turning to `C[C@@H]1C[C@H](N)C[C@H](c2ccncc2NC(=O)c2ccc(F)c(-c3c(F)cc(C4(O)CC4)cc3F)n2)C1` [Example 44, N-(4-((1R,3S,5S)-3-amino-5-methylcyclohexyl)pyridin-3-yl)-6-(2,6-difluoro-4-(1-hydroxycyclopropyl)phenyl)-5-fluoropicolinamide], the IC50 against Pim 1 came out at 0.01 nM; on Pim 3, 0.77 nM; on Pim 2 it was 2.03 nM. The midpoint of the response in test [1], the EC50, lay at 18 nM.

Take `COC(C)(C)COc1cc(F)c(-c2nc(C(=O)Nc3cnccc3[C@H]3C[C@@H](N)[C@H](O)[C@@H](C)C3)ccc2F)c(F)c1` [Example 45, N-(4-((1R,3R,4R,5S)-3-amino-4-hydroxy-5-methylcyclohexyl)pyridin-3-yl)-6-(2,6-difluoro-4-(2-methoxy-2-methylpropoxy)phenyl)-5-fluoropicolinamide]: the figures for the IC50 at Pim 1, against Pim 3 and at Pim 2 were 0.03 nM, 1.13 nM and 3.15 nM, respectively. This molecule registered an EC50 in test [1] of 49 nM.

As to `COC(C)(C)COc1cc(F)c(-c2nc(C(=O)Nc3cnccc3[C@@H]3C[C@H](C)C[C@H](N)C3)ccc2F)c(F)c1` [Example 46, N-(4-((1R,3S,5S)-3-amino-5-methylcyclohexyl)pyridin-3-yl)-6-(2,6-difluoro-4-(2-methoxy-2-methylpropoxy)phenyl)-5-fluoropicolinamide], the IC50 was 0.02 nM against Pim 1, 0.85 nM on Pim 3 and 2.77 nM on Pim 2. This molecule also had an EC50 in test [1] of 84 nM.

As for `C[C@H]1C[C@@H](c2ccncc2NC(=O)c2ccc(F)c(-c3c(F)cc(OC4COC4)cc3F)n2)C[C@@H](N)[C@@H]1O` [Example 47, N-(4-((1R,3R,4R,5S)-3-amino-4-hydroxy-5-methylcyclohexyl)pyridin-3-yl)-6-(2,6-difluoro-4-(oxetan-3-yloxy)phenyl)-5-fluoropicolinamide], the IC50 against Pim 1 turned out to be 0.04 nM; on Pim 3, 1.32 nM; against Pim 2, 6.33 nM. This molecule also displayed an EC50 in test [1] of 97 nM.
